Assay results from paper PMC10180488, “Novel Derivatives of Eugenol as a New Class of PPARγ Agonists in Treating Inflammation: Design, Synthesis, SAR Analysis and In Vitro Anti-Inflammatory Activity” (Molecules, 2023).
“And” between values parts separate entries of the source, which are not always exact repeats. Equal values may be shown once.

Key:
[1] = target: T1, human PPARγ- LBD (Homo sapiens, UniProt P37231); assay: Lanthascreen TR-FRET PPARγ competitive binding assay; conditions: for IC50: Lanthascreen TR-FRET competitive binding; for Raw Data / Raw Data - Background: TR-FRET
T1 construct: a mixture of a human PPARγ- LBD labelled with glutathione S-transferase (GST)
T1 sequence (P37231 238-503 limits assumed): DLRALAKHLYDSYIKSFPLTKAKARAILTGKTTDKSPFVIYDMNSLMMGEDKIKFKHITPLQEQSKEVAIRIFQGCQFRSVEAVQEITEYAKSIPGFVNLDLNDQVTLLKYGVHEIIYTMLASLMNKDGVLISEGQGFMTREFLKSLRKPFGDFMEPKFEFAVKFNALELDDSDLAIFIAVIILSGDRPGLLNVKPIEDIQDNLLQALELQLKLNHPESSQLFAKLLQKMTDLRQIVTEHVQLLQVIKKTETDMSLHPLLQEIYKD
Protocol: Using the Lanthasreen TR-FRET assay, the synthesized compounds were first preliminary tested for the PPARγ binding affinity. […] A chemical under test displaces the tracer from PPAR-LBD, which lowers the TR-FRET ratio and decreases the FRET signal Figure 8 [33].
A multimode low-volume proxy plate reader was used to read the plates after one hour of incubation. Then, a mixture of a human PPARγ- LBD labelled with glutathione S-transferase (GST), a fluorescent small pan-PPAR ligand (FluormoneTM Pan-PPAR Green), and terbium-labeled anti-GST antibody was added.

[2] = target: egg albumin (Gallus gallus, UniProt P01012); assay: Albumin denaturation assay; assay type: biochemical, hen; conditions: mean ± SD (n = 3), read-out: Percentage inhibition of denaturation of albumin
egg albumin, sequence (P01012 2-386): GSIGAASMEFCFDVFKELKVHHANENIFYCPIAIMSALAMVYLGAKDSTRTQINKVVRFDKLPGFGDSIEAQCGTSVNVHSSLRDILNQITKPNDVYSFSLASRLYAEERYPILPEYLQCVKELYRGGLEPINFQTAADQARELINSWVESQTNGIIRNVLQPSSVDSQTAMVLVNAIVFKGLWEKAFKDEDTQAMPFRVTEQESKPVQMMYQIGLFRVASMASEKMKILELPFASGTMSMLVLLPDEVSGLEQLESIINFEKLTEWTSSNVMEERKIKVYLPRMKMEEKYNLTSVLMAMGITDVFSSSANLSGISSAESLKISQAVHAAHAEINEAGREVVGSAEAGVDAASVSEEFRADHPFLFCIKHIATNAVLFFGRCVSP
Protocol: Inflammation is accompanied by protein denaturation. Tissue protein denaturation is a well-established cause of Inflammatory illnesses. Inflammatory disorders including rheumatoid arthritis, diabetes, and cancer have been linked to the denaturation of proteins. The ability of a substance to stop proteins from becoming denaturized has a role in the prevention of inflammatory disorders. […] Denaturation of proteins is accomplished by keeping the reaction mixture in a water bath at 70 °C for […].
Minor modifications were made to Mizushima and Kobayashi’s and Sakat et al. methodologies. The reaction mixture containing 0.2 mL of egg albumin (from a fresh hen’s egg) is mixed with 2.8 mL of phosphate-buffered saline (PBS, pH 6.4) and 2 mL of synthesized compounds in varying concentrations. The mixture was then heated at 70 °C for 5 min after being incubated at 37 °C for approximately 15–20 min. After cooling, their absorbance was measured at 660 nm spectrometrically. Three duplicates of the experiment were carried out. […] Percentage inhibition = (OD control − OD sample/OD control) × 100

[3] = system: human red blood cells (HRBC); assay: HRBC membrane stabilization method; conditions: for HRBC membrane stabilization (percentage protection against HRBC lysis): mean ± SD (n = 3); for IC50: Homo sapiens, Erythrocyte, read-out: IC50 Values, HRBC membrane stabilization method
Protocol: The principle of this procedure is to stabilize the membrane of human red blood cells by hypotonic membrane lysis. […] Lysosomal enzyme levels typically decrease as the HRBC membrane is stabilized.
The packed cells in this blood solution were separated after centrifugation at 3000 rpm [41]. The packed cells were cleaned using an isosaline solution, and then, isosaline was used to prepare a 10% v/v suspension. This HRBC suspension was employed to estimate its anti-inflammatory properties. Different concentrations of the synthesized compounds and the reference standard were each combined with 1 mL of phosphate buffer (pH 7.4), 2 mL of hyposaline, and 0.5 mL of HRBC solution. A total of 2.0 mL of distilled water was utilized as the control. The assay mixtures were all centrifuged at 3000 rpm after 30 min of incubation at 37°C. The following formula was used to determine the percentage of stabilized HRBC membranes. Percentage protection= 100 − (OD sample/OD control) × 100

SMILES	IC50 [1]	Raw Data ([1]; 0.0000512 µM)	Raw Data - Background ([1]; 0.0000512 µM)	Raw Data ([1]; 0.000256 µM)	Raw Data - Background ([1]; 0.000256 µM)	inhibition at 6.25 µM [2]	inhibition at 12.5 µM [2]	inhibition at 25 µM [2]	inhibition at 50 µM [2]	inhibition at 100 µM [2]	inhibition at 200 µM [2]	inhibition at 400 µM [2]	HRBC membrane stabilization (percentage protection against HRBC lysis) ([3]; 6.25 µM)	HRBC membrane stabilization (percentage protection against HRBC lysis) ([3]; 12.5 µM)	HRBC membrane stabilization (percentage protection against HRBC lysis) ([3]; 25 µM)	HRBC membrane stabilization (percentage protection against HRBC lysis) ([3]; 50 µM)	HRBC membrane stabilization (percentage protection against HRBC lysis) ([3]; 100 µM)	HRBC membrane stabilization (percentage protection against HRBC lysis) ([3]; 200 µM)	HRBC membrane stabilization (percentage protection against HRBC lysis) ([3]; 400 µM)	IC50 [3]	other results
C=CCc1ccc(OCC(=O)Nc2cccc(C(F)(F)F)c2)c(OC)c1 [Compound 1d, 2-(4-Allyl-2-methoxyphenoxy)-N-[(3-trifluoromethyl)phenyl]acetamide]	6.47 µM	2.02 RLU	1.876 RLU	2.04 RLU	1.881 RLU	4.21 ± 0.37%	8.79 ± 0.32%	14 ± 0.31%	18.8 ± 0.39%	32.46 ± 0.32%	38.49 ± 0.37%	49.09 ± 0.18%	8.85 ± 0.36%	17.77 ± 0.46%	28.72 ± 0.46%	34.74 ± 0.56%	45.51 ± 0.28%	56.45 ± 0.31%	67.40 ± 0.28%	66.3 µM	Raw Data ([1]; 0.00128 µM): 2 RLU; Raw Data - Background ([1]; 0.00128 µM): 1.79 RLU; Raw Data ([1]; 0.0064 µM): 2.061 RLU; Raw Data - Background ([1]; 0.0064 µM): 1.836 RLU; Raw Data ([1]; 0.032 µM): 1.99 RLU; Raw Data - Background ([1]; 0.032 µM): 1.875 RLU; Raw Data ([1]; 0.16 µM): 1.945 RLU; Raw Data - Background ([1]; 0.16 µM): 1.78 RLU; Raw Data ([1]; 0.8 µM): 2.018 RLU; Raw Data - Background ([1]; 0.8 µM): 1.89 RLU; Raw Data ([1]; 4 µM): 1.542 RLU; Raw Data - Background ([1]; 4 µM): 1.307 RLU; Raw Data ([1]; 20 µM): 0.593 RLU; Raw Data - Background ([1]; 20 µM): 0.497 RLU; Raw Data ([1]; 100 µM): 0.6527 RLU; Raw Data - Background ([1]; 100 µM): 0.4876 RLU
C=CCc1ccc(OCC(=O)Nc2ccc([N+](=O)[O-])cc2)c(OC)c1 [Compound 1b, 2-(4-Allyl-2-methoxyphenoxy)-N-(4-nitrophenyl)acetamide]	42.4 µM	2.014 RLU	1.767 RLU	1.849 RLU	1.755 RLU	2.06 ± 0.17%	4.44 ± 0.36%	8.42 ± 0.24%	13.4 ± 0.24%	17.6 ± 0.18%	21.2 ± 0.3%	32.2 ± 0.4%	3.19 ± 0.28%	9.10 ± 0.28%	15.55 ± 0.28%	27.49 ± 0.36%	36.16 ± 0.48%	45.07 ± 0.28%	58.36 ± 0.28%	83.2 µM	Raw Data ([1]; 0.00128 µM): 1.865 RLU; Raw Data - Background ([1]; 0.00128 µM): 1.732 RLU; Raw Data ([1]; 0.0064 µM): 1.857 RLU; Raw Data - Background ([1]; 0.0064 µM): 1.671 RLU; Raw Data ([1]; 0.032 µM): 1.859 RLU; Raw Data - Background ([1]; 0.032 µM): 1.568 RLU; Raw Data ([1]; 0.16 µM): 1.896 RLU; Raw Data - Background ([1]; 0.16 µM): 1.724 RLU; Raw Data ([1]; 0.8 µM): 2.012 RLU; Raw Data - Background ([1]; 0.8 µM): 1.756 RLU; Raw Data ([1]; 4 µM): 1.779 RLU; Raw Data - Background ([1]; 4 µM): 1.596 RLU; Raw Data ([1]; 20 µM): 1.199 RLU; Raw Data - Background ([1]; 20 µM): 1.025 RLU; Raw Data ([1]; 100 µM): 0.421 RLU; Raw Data - Background ([1]; 100 µM): 0.2685 RLU
O=C(O)Cc1ccccc1Nc1c(Cl)cccc1Cl [Standard Diclofenac, Diclofenac, reference compound]						10.2 ± 0.55%	15.3 ± 0.43%	28.2 ± 0.61%	38.93 ± 0.37%	49.5 ± 0.51%	60.29 ± 0.36%	68.54 ± 0.43%	15.99 ± 0.64%	26.93 ± 0.55%	43.54 ± 0.48%	52.58 ± 0.48%	62.30 ± 0.59%	76.87 ± 0.64%	90.77 ± 0.36%	48.1 µM	HRBC membrane stabilization (percentage protection against HRBC lysis) ([3]; 400 µM, listed as diclofenac sodium): 90.77% and 90%
